Test results: the NIST ThermoML archive (doi:10.1016/j.fluid.2014.06.024)
Numbers after ± are expanded uncertainties.

Key:
[1] = 101.33 kPa, Liquid; for speed of sound: Sing-around technique in a fixed-path interferometer; for mass density: Vibrating tube method
[2] = molar heat capacity at constant pressure; settings: 101.33 kPa, Liquid, Small sample (50 mg) DSC

Structure (SMILES) | speed of sound ([1]; 298.15 K) | mass density ([1]; 298.15 K) | speed of sound ([1]; 303.15 K) | mass density ([1]; 303.15 K) | speed of sound ([1]; 308.15 K) | mass density ([1]; 308.15 K) | molar heat capacity at constant pressure ([2]; 298.15 K) | molar heat capacity at constant pressure ([2]; 303.15 K) | molar heat capacity at constant pressure ([2]; 308.15 K)
Cc1ccccc1C [1,2-dimethylbenzene] | 1346.2 ± 0.8 m/s | 875.91 ± 1 kg/m3 | 1326.2 ± 0.8 m/s | 871.7 ± 1 kg/m3 | 1306.1 ± 0.8 m/s | 867.48 ± 1 kg/m3 | 187.55 ± 2.9 J/K/mol | 189.11 ± 2.9 J/K/mol | 190.62 ± 3 J/K/mol
Cc1ccccc1 [toluene] | 1304.6 ± 1 m/s | 862.18 ± 1 kg/m3 | 1283.2 ± 1 m/s | 857.51 ± 1 kg/m3 | 1261.8 ± 1 m/s | 852.82 ± 1 kg/m3 | 157.18 ± 2.4 J/K/mol | 158.61 ± 2.5 J/K/mol | 160.09 ± 2.5 J/K/mol
C1CCOCC1 [tetrahydropyran] | 1269.8 ± 0.9 m/s | 879.13 ± 1 kg/m3 | 1246.8 ± 0.9 m/s | 873.99 ± 1 kg/m3 | 1224.4 ± 0.9 m/s | 868.83 ± 1 kg/m3 | 149.62 ± 2.3 J/K/mol | 151.22 ± 2.3 J/K/mol | 153.08 ± 2.4 J/K/mol
Cc1ccccc1Cl [2-chlorotoluene] | 1298.7 ± 1 m/s | 1077.3 ± 1 kg/m3 | 1280.7 ± 1 m/s | 1072.5 ± 1 kg/m3 | 1262.7 ± 1 m/s | 1067.6 ± 1 kg/m3 | 178.21 ± 2.8 J/K/mol | 180.01 ± 2.8 J/K/mol | 181.71 ± 2.8 J/K/mol
c1ccccc1 [benzene] | 1299.4 ± 0.8 m/s | 873.54 ± 1 kg/m3 | 1276.1 ± 0.82 m/s | 868.2 ± 1 kg/m3 | 1252.9 ± 0.82 m/s | 862.84 ± 1 kg/m3 | 135.18 ± 2.1 J/K/mol | 136.4 ± 2.1 J/K/mol | 137.61 ± 2.1 J/K/mol
